Assay results: patent publication US8268293B2, “UV protection” (Merck Patent GmbH, priority 2005, dated 2012)

Columns and labels:
[1] = Oxidation in UV light: change in the UV spectrum on irradiation; assay type: physicochemical
Experimental: The curves stand for the unirradiated substance (exposed to 0 kJ/m^2), after irradiation for 15 min (exposure to 86 kJ/m^2), after irradiation for 65 min (exposure to 373 kJ/m^2), after irradiation for 235 min (exposure to 1349 kJ/m^2) and after irradiation for 405 min (exposure to 2325 kJ/m^2).

[2] = Oxidation in UV light in the presence of further antioxidants: UV/VIS spectrum of beta-carotene emulsions on irradiation

- UV absorption in the UV-A region on irradiation with UV light ([1]; after irradiation for 65 min (373 kJ/m^2), xenon lamp 95.69 W/m^2, 290-400 nm, increases further on longer irradiation): significantly increased UV absorption
- Emax of the UV-A absorption developed on irradiation ([1]; neat substance, after UV irradiation): 320-340 nm
- effect on beta-carotene degradation in the emulsion on UV irradiation ([2]; emulsion with 0.5% beta-carotene and 4% compound vs emulsion without compound, irradiated 90 min, beta-carotene absorption at 440-480 nm): stabilises the beta-carotene
- Emax of the absorption of the reaction product in the UV-A region ([2]; emulsion with 0.5% by weight beta-carotene and 4% by weight compound, irradiated 90 min (curve B)): 320-340 nm
SMILES: CCCCC(CC)COC(=O)C(Cc1cc(OC)c(O)c(OC)c1)C(=O)OCC(CC)CCCC (stereo not shown)
